Read-outs that look alike come from different tables or passages of the source.
Test: Preliminary pharmacokinetics in trial 1403-0001 (Arm A D1 q3w, Arm B D1 D8 q4w)
Assay type: in vivo, human
Conditions: for % AUCtz-∞ / AUC0-∞, norm / CL/F / Cmax, norm / AUC(0-inf) / Cmax / Vd/F / half-life: gMean; for Cmax, norm (gMean) / % AUCtz-∞ (gMean) / AUC0-∞, norm, gMean (gCV [%]) / CL/F (gMean): Arm A D1 q3w; for AUC(0-inf) / Cmax / Vd/F / half-life / Tmax: human, plasma, oral; for AUC(0-inf): read-out: AUC0-∞; for Cmax: read-out: Cmax; for Vd/F: read-out: Vz/F; for half-life: read-out: t1/2 (converted); for Tmax: median, read-out: tmax
Excerpt: Preliminary PK data were available from the first 45 treated patients in study 1403-0001. The exploratory PK analysis is based on planned blood sampling time-points and the results are subject to change because not all samples from these patients have been analyzed yet. Therefore, AUCs may be incomplete. In addition, information on the absorption, distribution, and elimination of the MDM2 antagonist of formula I are descriptive given the limited exploratory PK results available up to this point in time.
Consequently the preliminary PK results support the dose selection of 45 mg (and alternatively even of 30 mg) combined with the once in three weeks (D1 q3w) dose regimen. The tmax of the MDM2 antagonist of formula I is generally between 4 and 6 hours after tablet intake.

[1] = 5 mg, Day 1, D1 D8 q4w (Arm B), N=3
[2] = 5 mg, Day 8, D1 D8 q4w (Arm B), N=3
[3] = 10 mg, Day 1, D1 D8 q4w (Arm B), N=3
[4] = 10 mg, Day 8, D1 D8 q4w (Arm B), N=3
[5] = 15 mg, Day 1, D1 D8 q4w (Arm B), N=3
[6] = 15 mg, Day 8, D1 D8 q4w (Arm B), N=2
[7] = 20 mg, Day 1, D1 D8 q4w (Arm B), N=3
[8] = 20 mg, Day 8, D1 D8 q4w (Arm B), N=3
[9] = 30 mg, Day 1, D1 D8 q4w (Arm B), N=4
[10] = 30 mg, Day 8, D1 D8 q4w (Arm B), N=3
[11] = 45 mg, Day 1, D1 D8 q4w (Arm B), N=2
[12] = 60 mg, Day 1, D1 D8 q4w (Arm B), N=2

## Cc1c(C(=O)O)ccc2c3n(nc12)[C@@H]1[C@H](C3)N(CC2CC2)[C@@]2(C(=O)Nc3cc(Cl)ccc32)[C@H]1c1cccc(Cl)c1F [MDM2-antagonist of formula I, (2′S,3′S,3a'S,10a'S)-6-chloro-3′-(3-chloro-2-fluorophenyl)-1′-(cyclopropylmethyl)-6′-methyl-2-oxo-1,2,3′,3a′,10′,10a′-hexahydro-1′H-spiro[indole-3,2′-pyrrolo[2′,3′:4,5]pyrrolo[1,2-b]indazole]-7′-carboxylic acid]
[1]
  % AUCtz-∞: 10.2%
  AUC0-∞, norm: 3530 nmol·h/L/mg
  CL/F: 7.99 mL/min
  Cmax, norm: 51.9 nmol/L/mg
  AUC(0-inf): 17.6 µM·h
  Cmax: 260 nM
  Vd/F: 38.2 L
  half-life: 55.3 h
  Tmax: 4 h
[2]
  % AUCtz-∞: 30.2%
  AUC0-∞, norm: 3860 nmol·h/L/mg
  CL/F: 7.31 mL/min
  Cmax, norm: 67.2 nmol/L/mg
  AUC(0-inf): 19.3 µM·h
  Cmax: 336 nM
  Vd/F: 29.2 L
  half-life: 46.2 h
  Tmax: 4 h
[3]
  % AUCtz-∞: 10.8%
  AUC0-∞, norm: 5230 nmol·h/L/mg
  CL/F: 5.39 mL/min
  Cmax, norm: 63.8 nmol/L/mg
  AUC(0-inf): 52.3 µM·h
  Cmax: 638 nM
[4]
  % AUCtz-∞: 31.6%
  AUC0-∞, norm: 4840 nmol·h/L/mg
  CL/F: 5.82 mL/min
  Cmax, norm: 71.4 nmol/L/mg
[5]
  % AUCtz-∞: 2.89%
  AUC0-∞, norm: 2520 nmol·h/L/mg
  CL/F: 11.2 mL/min
  Cmax, norm: 55.4 nmol/L/mg
[6]
  % AUCtz-∞: 14.8%
  AUC0-∞, norm: 1720 nmol·h/L/mg
  CL/F: 16.4 mL/min
15 mg, Day 8, D1 D8 q4w (Arm B), N=3
  Cmax, norm: 51.7 nmol/L/mg
[7]
  % AUCtz-∞: 8.63%
  AUC0-∞, norm: 4440 nmol·h/L/mg
  CL/F: 6.34 mL/min
  Cmax, norm: 68.4 nmol/L/mg
[8]
  % AUCtz-∞: 25.9%
  AUC0-∞, norm: 3050 nmol·h/L/mg
  CL/F: 9.22 mL/min
  Cmax, norm: 60.9 nmol/L/mg
[9]
  % AUCtz-∞: 6.72%
  AUC0-∞, norm: 2660 nmol·h/L/mg
  CL/F: 10.6 mL/min
  Cmax, norm: 48.0 nmol/L/mg
[10]
  % AUCtz-∞: 18.9%
  AUC0-∞, norm: 2160 nmol·h/L/mg
  CL/F: 13.0 mL/min
  Cmax, norm: 44.3 nmol/L/mg
[11]
  % AUCtz-∞: 4.72%
  AUC0-∞, norm: 2150 nmol·h/L/mg
  CL/F: 13.1 mL/min
  Cmax, norm: 51.7 nmol/L/mg
[12]
  % AUCtz-∞: 7.08%
  AUC0-∞, norm: 1460 nmol·h/L/mg
  CL/F: 19.3 mL/min
  Cmax, norm: 32.7 nmol/L/mg
60 mg, Day 8, D1 D8 q4w (Arm B), N=2
  Cmax, norm: 31.5 nmol/L/mg
20 mg, N=2
  Cmax, norm (gMean): 58.2 nmol/L/mg
30 mg, N=3
  % AUCtz-∞ (gMean): 24.6%
  AUC0-∞, norm, gMean (gCV [%]): 3760 (46.8) nmol*h/L/mg
  CL/F (gMean): 7.50 mL/min
  Cmax, norm (gMean): 96.4 nmol/L/mg
45 mg, N=6
  % AUCtz-∞ (gMean): 29.2%
  AUC0-∞, norm, gMean (gCV [%]): 3040 (53.6) nmol*h/L/mg
  CL/F (gMean): 9.28 mL/min
  Cmax, norm (gMean): 60.2 nmol/L/mg
50 mg, N=4
  % AUCtz-∞ (gMean): 19.7%
  AUC0-∞, norm, gMean (gCV [%]): 6280 (37.3) nmol*h/L/mg
  CL/F (gMean): 4.49 mL/min
  Cmax, norm (gMean): 74.8 nmol/L/mg
60 mg, N=6
  % AUCtz-∞ (gMean): 3.71%
  AUC0-∞, norm, gMean (gCV [%]): 2710 (33.4) nmol*h/L/mg
  CL/F (gMean): 10.4 mL/min
60 mg, N=7
  Cmax, norm (gMean): 54.5 nmol/L/mg
80 mg, N=2
  % AUCtz-∞ (gMean): 2.54%
  AUC0-∞, norm, gMean (gCV [%]): 2570 (29.2) nmol*h/L/mg
  CL/F (gMean): 11.0 mL/min
  Cmax, norm (gMean): 49.2 nmol/L/mg

Source: patent US20230058171A1, “NEW ORAL PHARMACEUTICAL COMPOSITION FOR CANCER THERAPY” (BOEHRINGER INGELHEIM INTERNATIONAL GMBH, priority 2021, published 2023)
